# In patent US5612474A, “Acid labile immunoconjugate intermediates” (Eli Lilly and Company, priority 1994, dated 1997):
# How the values were obtained:
# [1] = test system: CCRF-CEM cells; assay: In vitro antitumor activity / growth inhibition of CCRF-CEM cells, 72 hours; format: cell-based; conditions: Homo sapiens, serum-free UltraCHO media, read-out: IC50 (50% inhibition of growth)
# Procedure: The in vitro data were obtained using CCRF-CEM cells, a human leukemia cell line. Foley et al., Cancer, 18:522 (1965). These cells were grown in albumin-free UltraCHO® media (BioWhittaker, Inc., Walkersville, Md.) using standard techniques. See, e.g., G. B. Grindey, et al., Journal of Molecular Pharmacology, 16:601 (1979). Dose-response curves were generated for various compounds to determine the concentration required for 50% inhibition of growth (IC50). Cluster plates were prepared in duplicate with the compound at various concentrations. Test compounds were dissolved initially in DMSO at a concentration of 4 mg/ml and further diluted with solvent to the desired concentration. Cells in serum-free UltraCHO media were added to the well at a final concentration of 4.8×10^4 cells/well in a total volume of 2.0 ml. After 72 hours of incubation (95% air, 5% CO2), cell numbers were determined on a ZBI Coulter counter. Cell number for indicated controls at the end of incubation was usually (4-6)×10^5 cells/well. Cell viability was also measured by staining with 3-[4,5-dimethylthiazol-2-yl]-2,5-diphenyl-tetrazolium bromide (MTT) using standard techniques. R. I. Freshhey, Culture of Animal Cells: A Manual of Basic Technique, 253-354 (2d ed. 1987).
# Column 1 refers to the example number of the compound tested; Column 2 depicts the in vitro cytoxicity against CCRF-CEM cells by relating the concentration of the test compound required for 50% inhibition of growth (IC50) of the cells in the well.
# [2] = test system: LS-174T human colon carcinoma; assay: Cytotoxicity assay of immunoconjugates, 3H-leucine uptake, 48 hours; format: cell-based; conditions: LS174T, LS 174T cells, 48 hours incubation, concentrations in terms of drug contained in conjugate
# Excerpt: Table III uses several abbreviations which are defined as follows. The terms D612, COL-1, CC83, and CC49 refer to specific murine monoclonal antibodies which are described in detail in the Antibody section of the Detailed Description. […] "CR#" is an abbreviation for conjugation ratio. "MIR" refers to the molar input ratio of the linker-drug relative to the antibody.
# [3] = test system: HC-1 human colon carcinoma xenograft; assay: Antitumor activity against HC-1 human colon carcinoma xenografts in nude mice; format: in vivo, human tumor in CD1 Nu/Nu mice; conditions: for Activity (overall): overall activity over all doses
# Excerpt: One of the tumor models used for showing the anti-neoplastic activity of the prodrugs of this invention were the human colon xenografts, HC-1 human colon xenograft. This tumor model was obtained from the Division of Cancer Treatment, National Cancer Institute, Tumor Bank.
# First passage tumors were stored in liquid nitrogen, using standard techniques. The transplanted tumor was reestablished from the Tumor Bank every six months or as needed. The tumor was maintained by serial passage twice weekly in nude mice.
# In the procedures utilized here, the tumor was removed from passage animals and minced into 1- to 3-mm cubic fragments using sterile techniques. Tumor pieces were checked for sterility using both Antibiotic Medium 1 and Brain Heart Infusion (Difco, Detroit, Mich.). The xenograft tumor pieces were implanted into the recipient CD1 Nu/Nu mice subcutaneously in an axillary site by trochar.
# Drug therapy on the appropriate schedule was initiated 14 days after tumor implantation for the mice bearing the xenograft tumors. The compound being tested was mixed with 2.5% Emulphor EL620 from GAP Corporation (1:40 dilution in 0.9% saline). The total dosage volume for each administration was 0.5 ml. All animals were weighed at the beginning and end of administration of the subject compounds. Food and water were provided ad libitum.
# Each control group and each dosage level of the treated groups consisted of 9 or 10 mice selected at random from the pool of implanted animals. The formulations were administered intraperitoneally. Compounds were dosed on days 1, 4, 7, and 10 for all prodrugs except for MMeT which was dosed on days 1,5, and 9.
# The tumor was measured five days after treatment ended with two dimensional measurements (width and length) of the tumor taken using digital electronic calipers interfaced to a microcomputer. J. P. Worzalla, et al., Investigational New Drugs, 8:241-251 (1990). Tumor weights were calculated from these measurements using the following formula: [formula] At least one control group of an equal number of mice was treated with the same volume of 2.5% Emulphor only. The percent inhibition is determined by subtracting the ratio of the mean tumor size of the test group relative to the control group from one and multiplying the result by 100.
# The results of several experiments in mice bearing the HC-1 human colon carcinoma when the Formula III compounds were administered orally are provided in Table V. Row 1 describes the particular compound being tested. Row 15 describes the overall activity of the compound. Column 1 gives the dosage level of the compound of Formula III and ADDFA in mg/kg. The second column gives the percent inhibition of tumor growth by the ADDFA given systemically. Colums 3 through 7 gives the percent inhibition of tumor growth of the compounds of Formula III.
# [4] = Cardiotoxicity / toxicity of free drug versus trityl prodrug (no method described); conditions: for use in oncolytic therapy
# [5] = Release studies: rate of free drug release from isopropylamide linker-drug by NMR; format: physicochemical
# Procedure: The isopropylamide linker-drug (2 mg) was dissolved in 0.3 ml of dry deuterated methanol (CD3 OD). A solution of potassium phosphate buffer in deuteratured water (D2 O) (0.2 ml) of appropriate pH was added. The resulting solution was transferred to an NMR tube and heated at 37° C. and NMR spectra were recorded periodically. The rate of appearance of free drug and the rate of disappearance of the starting material were calculated from the peak integrals at: […]
# NMR spectra (CD3 OD/0.1M KD2 PO4)
# [6] = pH 5.40, CD3OD/0.1M KD2PO4, 37° C.
# [7] = pH 6.40, CD3OD/0.1M KD2PO4, 37° C.
# [8] = pH 7.40, CD3OD/0.1M KD2PO4, 37° C., extrapolated
smiles,measurement,setting,value
"Nc1nc(N)c2ncn([C@@H]3O[C@H](CO)[C@@H](O)C3(F)F)c2n1 [ADDFA, 2-Amino-2'-deoxy-2',2'-difluoroadenosine, reference compound]",IC50,[1],0.024 µg/mL
same,IC50,[2],0.26 µg/mL
same,Percent Inhibition,[3]; 17.5 mg/kg,100%
same,Percent Inhibition,[3]; 20.0 mg/kg,100%
same,Percent Inhibition,[3]; 25.0 mg/kg,100%
same,Percent Inhibition,[3]; 32.5 mg/kg,100%
same,Percent Inhibition,[3]; 35.0 mg/kg,100%
same,Percent Inhibition,[3]; 40.0 mg/kg,100%
same,Percent Inhibition,[3]; 50.0 mg/kg,100%
same,Percent Inhibition,[3]; 65.0 mg/kg,100%
same,Percent Inhibition,[3]; 70.0 mg/kg,100%
same,Percent Inhibition,[3]; 80.0 mg/kg,100%
same,Percent Inhibition,[3]; 100.0 mg/kg,100%
same,Percent Inhibition,[3]; 130.0 mg/kg,100%
same,Activity (overall),[3],+++ (95-100% Inhibition)
same,cardiotoxicity,[4],too much cardiotoxicity
"COc1ccc(C(Nc2nc(N)nc3c2ncn3[C@@H]2O[C@H](CO)[C@@H](O)C2(F)F)(c2ccc(OC)cc2)c2ccc(C(=O)NC(C)C)cc2)cc1 [DMT, N-Isopropyl-4-[bis-(4-methoxyphenyl)-6-N-[2-amino-9-(2'-deoxy-2',2'-difluoro-β-ribofuranosyl)purinyl]methyl]benzamide]",IC50,[1],0.078 µg/mL
same,Percent Inhibition,[3]; 25.0 mg/kg,97%
same,Percent Inhibition,[3]; 50.0 mg/kg,99%
same,Percent Inhibition,[3]; 100.0 mg/kg,99%
same,Activity (overall),[3],+++ (95-100% Inhibition)
same,t1/2,[5]; [6],3.71 h
same,t1/2,[5]; [7],14.8 h
same,t1/2,"[5]; pH 7.40, CD3OD/0.1M KD2PO4, 37° C.",146.3 h
COc1ccc(C(Nc2nc(N)nc3c2ncn3[C@@H]2O[C@H](CO)[C@@H](O)C2(F)F)(c2ccccc2)c2ccc(C(=O)NC(C)C)cc2)cc1 (stereo partly shown) [MMT],IC50,[1],0.1 µg/mL
same,Percent Inhibition,[3]; 32.5 mg/kg,95%
same,Percent Inhibition,[3]; 65.0 mg/kg,96%
same,Percent Inhibition,[3]; 130.0 mg/kg,93%
same,Activity (overall),[3],+++ (95-100% Inhibition)
same,t1/2,[5]; [6],16.7 h
same,t1/2,"[5]; pH 6.40, CD3OD/0.1M KD2PO4, 37° C., extrapolated",547 h
same,t1/2,[5]; [8],800 h
"COc1ccc(C(Nc2nc(N)nc3c2ncn3[C@@H]2O[C@H](CO)[C@@H](O)C2(F)F)(c2ccc(C)cc2)c2ccc(C(=O)NC(C)C)cc2)cc1 (stereo partly drawn) [MMeT, N-Isopropyl-4-[4-methoxyphenyl-4'methylphenyl-6-N-[2-amino-9-(2'-deoxy-2',2'-difluoro-β-ribofuranosyl)purinyl]methyl]benzamide]",IC50,[1],0.1 µg/mL
same,Percent Inhibition,[3]; 20.0 mg/kg,95%
same,Percent Inhibition,[3]; 40.0 mg/kg,98%
same,Percent Inhibition,[3]; 80.0 mg/kg,98%
same,Activity (overall),[3],+++ (95-100% Inhibition)
Cc1ccc(C(Nc2nc(N)nc3c2ncn3[C@@H]2O[C@H](CO)[C@@H](O)C2(F)F)(c2ccccc2)c2ccc(C(=O)NC(C)C)cc2)cc1 (stereo partly shown) [MeT],IC50,[1],0.8 µg/mL
same,Percent Inhibition,[3]; 20.0 mg/kg,41%
same,Percent Inhibition,[3]; 40.0 mg/kg,58%
same,Percent Inhibition,[3]; 80.0 mg/kg,92%
same,Activity (overall),[3],++ (80-94% Inhibition)
"CC(C)NC(=O)c1ccc(C(Nc2nc(N)nc3c2ncn3[C@@H]2O[C@H](CO)[C@@H](O)C2(F)F)(c2ccccc2)c2ccccc2)cc1 [T, N-Isopropyl-4-[bis-phenyl-6-N-[2-amino-9-(2'-deoxy-2',2'-difluoro-β-ribofuranosyl)purinyl]methyl]benzamide]",IC50,[1],1.7 µg/mL
same,Percent Inhibition,[3]; 17.5 mg/kg,14%
same,Percent Inhibition,[3]; 35.0 mg/kg,28%
same,Percent Inhibition,[3]; 70.0 mg/kg,04%
same,Activity (overall),[3],- (<60% Inhibition)
same,fragmentation under pH conditions used,"[5]; pH 5.40, 6.40, 7.40, up to t = 800",no fragmentation
"COc1ccc(C(Nc2nc(N)nc3c2ncn3[C@@H]2O[C@H](CO)[C@@H](O)C2(F)F)(c2ccc(OC)cc2)c2cccc(C(=O)NC(C)C)c2)cc1 [mDMT, N-Isopropyl-3-[bis-(4-methoxyphenyl)-6-N-[2-amino-9-(2'-deoxy-2',2'-difluoro-β-ribofuranosyl)purinyl]methyl]benzamide]",IC50,[1],0.084 µg/mL
same,t1/2,[5]; [6],2.35 h
same,t1/2,[5]; [7],23.3 h
same,t1/2,[5]; [8],133.3 h
